Results: a melting point compilation (Tetko et al.; mined from patent text by program, amines drawn as free bases though some values may be those of a salt)

| SMILES | melting point [°C] |
| --- | --- |
| O=C(CCC1CCCC1)Nc1ccc(NC(=O)CCC2CCCC2)c2c1C(=O)c1ccccc1C2=O | 166 to 167 |
| CN(C)Cc1cc2ccc(C(=O)NN)cc2n1S(C)(=O)=O | 170 to 173 |
| CCCC(Oc1cc(OC)ccc1C(=O)c1ccc(OCc2nc(-c3ccccc3)oc2C)cc1)C(=O)O (stereo not given) | 139 to 140 |
| CCc1c(Sc2cc(C)cc(C)c2)n(CC2CC=CC2)c(=O)[nH]c1=O | 128 to 130 |
| Cc1cccc(-c2c(Cl)ccc3c2C=C(C(=O)O)C(C(F)(F)F)O3)c1 (stereo not given) | 222 to 224 |
| O=C1OCCN1CCN1CCN(C2Cc3ccc(Cl)cc3Sc3cc(F)ccc32)CC1 (stereo not given) | 168 to 170 |
| Cc1oc(-c2ccccc2)nc1CCOc1ccc(CCCO)cc1 | 99 to 100 |
| Cc1ccc(N2C(=O)C(O)=C(C(=O)c3ccc(C(C)C)cc3)C2c2ccc(Cn3ccnn3)cc2)nn1 (stereo not given) | 293 |
| COC(=O)CCCc1ccc(C(=O)CCCc2ccccc2)cc1 | 61 to 62 |
| COc1c(F)cc(-c2cncc(OC3SCC(O)C(O)C3O)c2)cc1F (stereo not given) | 203 |
| NC(=O)c1sc2nccc(N3CCN(C(c4ccccc4)c4ccccc4)CC3)c2c1N | 225 to 233 |
| CN1C(=O)C(NC(=O)C23CC4CC(CC(C4)C2)C3)N=C(c2ccccc2)c2ccccc21 (racemic) | 256 to 257 |
| CC(C)CCCC(C)C1CCC2C3=CC=C4CC(O)C(OCCCO)C(O)C4(C)C3CCC21C (stereo not given) | 114 to 116 |
| COCCOc1ccc(CCC(=O)NS(=O)(=O)c2ccc(F)cc2)c(Oc2ncc(C(F)(F)F)cc2Cl)c1 | 136 to 138 |
| CN(C)c1cc(CO)cc(N(C)C)c1N1CCCCC1 | 90 to 92 |
| NCCC(O)(c1ccc(Br)cc1)c1cccnc1 (stereo not given) | 95 to 115 |
| FC(F)(F)Oc1ccc2c(c1)nc(/C=C/c1ccccc1)n2-c1ccccn1 | 92 to 93 |
| CS(=O)c1onc(-c2ccccc2)c1-c1ccc(S(N)(=O)=O)cc1 (stereo not given) | 194 to 204 |
| O=C(Nc1ccc(-n2nc(C(F)(F)F)cc2OC(F)F)cc1)c1ccncc1F | 135 to 136 |
| CC(C)S(=O)(=O)n1c(N)nc2ccc(C(O)(CC(=O)N(C)C)c3ccccc3)cc21 (stereo not given) | 209 to 210 |
| COc1ccc(NS(=O)(=O)c2cc3cc(Cl)ccc3oc2=O)cc1O | 225 to 226 |
| CC(C)(C)OC(=O)Nc1cc(Sc2ccc3c(C(=O)O)cccc3c2)ncn1 | 208 to 209 |
| CCc1nc(-c2cccc(C)c2)c(-c2ccnc(N)c2)s1 | 144 to 146 |
| CNC(=O)C(=NOCF)c1ccccc1COc1ccccc1C | 86 to 88 |

| SMILES | melting point [°C] |
| --- | --- |
| CC(C)Nc1n[nH]c2nc(Oc3ccc(F)cc3F)ncc12 | 211 to 214 |
| CC(=O)OC(CCCCl)C(=O)OCc1ccccc1 (stereo not given) | 40 to 41 |
| Cc1cc(-n2cncn2)c2cccc(OCc3c(Cl)ccc(S(=O)(=O)N4CCC[C@H]4C(=O)NCC4CCN(CCOCCO)CC4)c3Cl)c2n1 | 82 |
| CSc1nn2c(N)cc(Cl)nc2c1S(=O)(=O)c1ccccc1 | > 230 |
| CCOc1cc(N)c(Cl)cc1C(=O)NCC1CN(Cc2ccc(F)cc2)CCO1 (stereo not given) | 151 to 153 |
| COc1cc2c(c(Cl)c1Cl)C(=O)c1ccccc1-2 | 268 to 270 |
| CCCC(=O)c1ccc(-c2ncccc2S(=O)(=O)Nc2ncc(C)nc2OC)cc1 | 130 to 131 |
| COCCOc1ccc(CCCOC(=O)NS(=O)(=O)c2ccc(Cl)cc2)c(Oc2ncc(C(F)(F)F)cc2Cl)c1 | 147 to 150 |
| c1ccc(Cc2ncc(-c3ccc4cc(OCc5nnn[nH]5)ccc4c3)o2)cc1 | 227 to 228 |
| CCNC(=O)[C@H](C)NC(=O)[C@H](C)NC(=O)CC | 289 to 291 |
| CC(=O)OC1CCC2(C)C(=CCC3C4CC(OC(C)=O)C(=O)C4(C)CCC32)C1 (stereo not given) | 173 to 174 |
| CCc1nc(C)c2nnc3ccc(F)cc3n12 | 187 to 190 |
| CC(=O)c1ccc(CC2SC(=O)NC2=O)cc1 (stereo not given) | 171 to 172 |
| O=C(O)CCCCCCCCN1C(=O)C(c2ccccc2)N(c2ccccc2)C1=O (stereo not given) | 112 |
| COc1c(CO)n(C)c(=O)c2ccc(Cl)cc12 | 195 to 196 |
| S=c1nc2ccc(Cl)cn2c(=S)n1-c1ccc(Cl)cn1 | 131 to 132 |
| CCOC(=O)c1cc2c(F)ccc(Br)c2s1 | 73 to 74 |
| Cc1ccc(C2CC(=O)c3c(C)coc3C2)cc1 (stereo not given) | 113 to 114 |
| COc1ccccc1N1CCN(S(=O)(=O)c2ccc(Nc3ccnc4cc(C(F)(F)F)ccc34)cc2)CC1 | 146 to 148 |
| CNS(=O)(=O)c1ccc(NN=C2C(=O)Nc3ccc4ncsc4c32)cc1 | > 260 |
| CCCCCCCCCC(C)(C)c1cc(C(=O)Sc2ccc(C(=O)O)cc2)ccc1OC | 186 to 187 |
| Cc1ccc(-c2coc(-c3ccc4c(c3)C(C)(C)CCC4(C)C)c2)cc1 | 155 to 157 |
| CCOC(=O)C1=C(COCCNC(N)=S)NC(C)=C(C(=O)OC)C1c1cccc(Cl)c1Cl (stereo not given) | 198 |
| CC(C)(C)c1cc(SC2CCOC2=O)cc(C(C)(C)C)c1O (stereo not given) | 98 |

| SMILES | melting point [°C] |
| --- | --- |
| O=Cc1cc2c(cc1[N+](=O)[O-])OC(F)(F)O2 | 36 to 38 |
| CC(O)CN1CCCC(c2cccs2)=N1 (stereo not given) | 74 to 77 |
| COc1cc(N)c(Cl)cc1C(=O)NCC1CCN(CCCCCNC(=O)c2ccccc2)CC1 | 138 to 140 |
| Nc1ccc(F)c(-c2ccncc2)c1F | 190 to 192 |
| Nc1[nH]c(=O)c(C(=O)CCC2CCN(CC3CCCCC3)CC2)cc1Cl | 164 |
| COc1ccc(-c2nn(CC3CC3)c(=O)cc2-c2ccc(OC)c(F)c2)cc1 | 135 to 136 |
| O=C(C=C(Cl)Cl)c1cc(F)c(Cl)cc1Cl | 64 to 65 |
| Cc1c(C)c2c(c(C)c1OCc1ccccc1)CC[C@@](C)(CC(=O)CC(=O)OCc1ccccc1)O2 | 72.5 to 74 |
| N#Cc1ccc(C[C@]23C[C@@H](O)CN2C(=O)N(c2cc(Cl)nc(Cl)c2)C3=O)cc1 | 97.6 |
| COc1ccc(Cl)c2c1C(=O)OC2=O | 192 to 193 |
| Cc1cc(=O)c(C(=O)Nc2ccccc2)c(-c2ccccc2)o1 | 222 to 226 |
| Cc1cc([N+](=O)[O-])cc(C)c1Oc1ccc(OCc2ccccc2)c(C(C)C)c1 | 99 to 100 |
| O=S1(=O)NCN(C2CC2)c2cc(Br)cc(F)c21 | 195 to 198 |
| O=C(O)C1=Cc2cc(Cl)c(I)cc2OC1C(F)(F)F (stereo not given) | 225 to 226 |
| CCOC1=NS(=O)(=O)N=C1N[C@@H]1c2cc(OC(F)(F)F)ccc2OC(C)(C)[C@H]1O | 192 to 194 |
| FC(F)(F)c1ccc(/C=C/c2nc(COc3cccc(CCCn4ccnn4)c3)co2)cc1 | 115 to 116 |
| O=C1CCC(O)(c2ccc(Cl)cc2)CC1 | 138 to 139 |
| CCOC(=O)C1=C(C)NC(CSC(=O)CCC2CCCCC2)=C(C(=O)OCC)C1c1cccc([N+](=O)[O-])c1 (stereo not given) | 109 to 112 |
| O=C1CCCCCC1C(C[N+](=O)[O-])c1ccc(OCc2ccccc2)cc1 (racemic) | 120 to 121 |
| CNCC1Oc2cc(F)cc(-c3ccccc3Cl)c2O1 (stereo not given) | 132 to 134 |
| O=C1OC(c2ccccc2)(c2ccccc2)CC(O)=C1CCCc1ccccc1 | 61 to 63 |
| CSc1ccc2cc(O)ccc2c1 | 120 to 122 |
